Source: article PMC6855144, “Examination of the Glycine Betaine-Dependent Methylotrophic Methanogenesis Pathway: Insights Into Anaerobic Quaternary Amine Methylotrophy” (Frontiers in Microbiology, 2019)

Target: T1, MV8460 (MtgB) (Methanolobus vulcani, UniProt A0A7Z8KPC2)
T1 construct: gene FKV42_08460
T1 sequence (A0A7Z8KPC2 1-475): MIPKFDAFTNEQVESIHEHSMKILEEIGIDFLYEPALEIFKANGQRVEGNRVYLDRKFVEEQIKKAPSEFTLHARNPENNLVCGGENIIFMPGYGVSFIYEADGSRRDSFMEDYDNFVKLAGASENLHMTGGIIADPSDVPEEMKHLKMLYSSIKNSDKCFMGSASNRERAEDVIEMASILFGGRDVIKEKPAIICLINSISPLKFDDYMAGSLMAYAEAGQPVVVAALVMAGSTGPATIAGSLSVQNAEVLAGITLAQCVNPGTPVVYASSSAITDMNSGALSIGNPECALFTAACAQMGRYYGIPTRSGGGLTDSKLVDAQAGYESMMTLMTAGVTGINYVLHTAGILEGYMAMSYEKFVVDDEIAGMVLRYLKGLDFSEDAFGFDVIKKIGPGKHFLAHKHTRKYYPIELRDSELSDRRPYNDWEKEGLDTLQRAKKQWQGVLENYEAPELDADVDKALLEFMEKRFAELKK
Experiment: UV-vis, methylation of free cob(I)alamin at […] nm
Format: biochemical
Conditions: methyl donor 50 mM; co-substrate cob(I)alamin; 37 °C; anoxic

## C[N+](C)(C)CC(=O)[O-] [GB, glycine betaine]
  UV-vis, methylation of free cob(I)alamin at 540 nm: We detected methylation of free cob(I)alamin by MV8460 using GB as the methyl donor
